Data on 3 molecules can be found in paper PMC9525908, “α-Crystallin chaperone mimetic drugs inhibit lens γ-crystallin aggregation: Potential role for cataract prevention” (The Journal of Biological Chemistry, 2022).

The target in one assay is T1, W43R mutant of HγD (Homo sapiens, UniProt P07320, W43R).
T1 construct: made in house; host or cells: E. coli BL21(DE3) pLysS
T1 sequence (P07320 1-174 W43R): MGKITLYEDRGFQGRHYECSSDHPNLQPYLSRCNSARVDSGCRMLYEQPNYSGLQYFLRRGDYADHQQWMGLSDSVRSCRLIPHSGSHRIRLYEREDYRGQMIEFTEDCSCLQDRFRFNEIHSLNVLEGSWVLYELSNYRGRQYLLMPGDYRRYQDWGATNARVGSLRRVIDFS
The assay is described as follows: Kinetic turbidity assay at 42 °C of W43R mutant. Type of assay: biochemical. To be noted: for Effect on aggregation of W43R mutant: 0–500 μM, 42 °C for 200 min, G at 400 and 500 μM; for inhibition at 500 µM: 500 μM drug, 42 °C, 200 min, read-out: Inhibition of aggregation (%) W43R. How it is done:
Aggregation kinetics assays at 600 nm in the presence of varying concentrations (0, 100, 200, 300, 400, and 500 μM) of our selected drugs were also performed on mutants of HγD (W43R, W42Q, R14C, and R58H) and MγS (F9S) at a concentration of 1 mg/ml in 50 mM K3PO4 buffer (pH 7.2) in a total volume of 100 μl. WT-HγD and WT-MγS crystallin served as controls for their respective mutant versions. For W43R mutant, aggregation assay was done at 42 °C for a total of 200 min. Absorbance was monitored every 10 min. For R14C and R58H mutants, end-point turbidity assay was done at 72 °C for 20 min. […] All the experiments were run in duplicates or triplicates.

The target of a further assay is T2, MγS (Mus musculus, UniProt O35486).
T2 construct: made in house; host or cells: E. coli BL21(DE3) pLysS, pET17b vector
T2 sequence (O35486 1-178): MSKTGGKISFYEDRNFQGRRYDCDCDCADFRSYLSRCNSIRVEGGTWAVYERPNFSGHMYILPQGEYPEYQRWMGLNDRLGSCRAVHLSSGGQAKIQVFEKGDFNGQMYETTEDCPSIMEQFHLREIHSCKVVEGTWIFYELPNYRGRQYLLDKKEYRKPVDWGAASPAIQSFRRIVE
The assay is described as follows: Steady-state tryptophan fluorescence quenching, MγS. It is filed as binding. How it is done:
Tryptophan fluorescence can be used for studying conformational changes resulting from protein–drug interactions ([44]). Fluorescence quenching of aromatic fluorophores in HγD and MγS by drugs C and G at three different temperatures (25, 30, and 37 °C) was studied in the presence of varying concentrations of drug C and G (0–250 μM). As shown in Figs. S5A and S6A, both HγD and MγS have a strong emission peak at 330 nm when excited at 295 nm. In both cases, quenching occurs with gradual addition of C and G at all three temperatures. Overall, quenching of Trp fluorescence emission is at highest at 25 °C (Figs. S5A and S6A) followed by 30 °C and lowest at 37 °C. […] The slope of plot Fo/F versus [Q] gives Ksv (Figs. S5B and S6B), whereas Kb is obtained from intercept of plot log (Fo/F − 1) versus log[Q] (Figs. S5C and S6C). […] For drug M, Kb values are of the order 10^2 M^−1 only. Fluorescence quenching can be either because of random collision between the molecules (dynamic interaction) or because of actual affinity between a protein pocket and drug (static interaction). Dynamic interactions are weaker and nonspecific in nature, whereas static interactions are stronger and more specific ([47]). For more information on the type of interaction, Kq was calculated and compared with the standard value of 2 × 10^10 M^−1s^−1, which is the maximum scatter collision quenching constant of various quenchers with biopolymers ([48]). […] Furthermore, the differential response of Ksv toward temperature change also clarifies the type of quenching. In static quenching, Ksv decreases with an increase in temperature because of the formation of complex with protein, which undergoes dissociation on increasing temperature.
To gauge the strength of the major forces involved in drug–protein complex formation, change in free energy was calculated using Gibbs–Helmholtz equation (Equation 3).(3) ΔG=-RTlnKb ([50]) where, R is gas constant and its value is […], T is absolute temperature (Kelvin) and Kb is binding constant whose value is already calculated using Equation 2. […] Free energy changes are negative at all three temperatures, being maximal at 25 °C. For C, G, and M interaction with HγD, ΔG values were −6.4, −7.9, and −1.9 kcal/mol (at 25 °C), that is, similar to those obtained by molecular docking as described later. These values also reflect the fact that drug M had the least protective effect on unfolding or aggregation of various γ-crystallins (Figs. 2 and S4).
All the steady-state fluorescence measurements were recorded on Fluoromax Spectrofluorometer (Horiba Scientific). For fluorescence quenching measurements, 10 μM of both HγD and MγS crystallins were titrated with varying concentrations of drugs C, G, and M (0–250 μM) at 25, 30, and 37 °C. These samples were excited at 295 nm, and the fluorescence emission was collected from 310 to 410 nm.

Another assay concerns the target T3, WT-MγS (Mus musculus, UniProt O35486).
T3 construct: made in house; host or cells: E. coli BL21(DE3) pLysS, pET17b vector
T3 sequence (O35486 1-178): T2 sequence (O35486 1-178)
The assay is described as follows: Thermal unfolding (Tm), WT-MγS. It is filed as biochemical. The note with it: 10 μM protein, 100 μM drug; Con 70. How it is done: Thermal denaturation study was monitored using fluorescence spectroscopy. Protein solutions (10 μM) in the presence and absence of drugs or bis-ANS (100 μM) were heated continuously from 30 to 95 °C, and the fluorescence data were collected every 5 °C after 1 min equilibration at the given temperature. Unfolding data were fit to Greene and Pace’s two-state model ([82]) using GraphPad Prism software (GraphPad Software, Inc).

A further assay has as its target T4, WT-HγD crystallin (Homo sapiens, UniProt P07320).
T4 construct: made in house; host or cells: E. coli BL21(DE3) pLysS, pET3d vector
T4 sequence (P07320 1-174): T1 sequence (P07320 1-174 W43R) with R43W
Description: Dynamic light scattering of thermally stressed WT-HγD. Type of assay: biochemical. To be noted: for Size (radius) of aggregates: 50 μM WT-HγD, 400 μM drug, 72 °C 20 min, 7261 nm without drugs. How it is done:
Efficacy of our selected drugs in preventing the formation of protein aggregates was measured by DLS. Measurements were performed on a Wyatt DynaPro Nanostar. For DLS temperature scan experiment, pure and filtered protein samples (1 mg/ml in 10 mM sodium phosphate buffer, pH 7.2) with and without drugs (400 μM) were analyzed by DLS over a temperature range of 30 to 90 °C. Multiple scans were run for every data point, and the results represent average of individual scans. DLS spectra were also recorded for the samples at the end point of turbidity assay.

[1] abbreviates: WT-HγD, end point of thermal stress 72 °C 20 min.

Substitutions are numbered along the chain they refer to.

Turning to `O=C(O)CCCCCCCCCCCC[C@@H]1C=CCC1` [drug M, Chaulmoogric acid], at W43R mutant of HγD, the “Effect on aggregation of W43R mutant” value is recorded as “no effect” and the inhibition – broadly, the relative decrease from the control value, in per cent – at 500 µM was determined as 14%. Also, on MγS (25 °C), the KSV is 0.793 M^−1 ×10^3, the Kq was 0.14 M^−1 s^−1 ×10^12 and the ΔG is listed as −2.7 kcalM^−1. At MγS (30 °C), the KSV was 0.733 M^−1 ×10^3, the Kq is 0.13 M^−1 s^−1 ×10^12 and the ΔG was −2.6 kcalM^−1. In addition, at MγS (37 °C), the KSV came to 0.491 M^−1 ×10^3 and the ΔG is −2.2 kcalM^−1. Further, the “Tm (°C) WT-MGS” value at WT-MγS stood at 68 °C. For the same molecule, on WT-HγD crystallin, the “Size (radius) of aggregates” value turned out to be 569 nm. On WT-HγD crystallin (setting [1]), the “Percent Mass Peak 1” value is on record as 12.7%, the “Percent Mass Peak 2” value is given as 87.3%, the “Radius (nm) Peak 1” value was 10.9 nm and the “Radius (nm) Peak 2” value came out at 568.5 nm.

In the case of `CC(C)=CCC[C@]1(C)C=Cc2c(O)c3c(c(CC=C(C)C)c2O1)O[C@]12C(=C[C@@H]4C[C@H]1C(C)(C)O[C@@]2(C/C=C(/C)C(=O)O)C4=O)C3=O` [drug G, Gambogic acid], at W43R mutant of HγD, the “Effect on aggregation of W43R mutant” value is “protected the mutant against aggregation” and the inhibition at 500 µM is 52%. Moreover, on MγS (25 °C), the KSV is 7.283 M^−1 ×10^3 and the Kq is on record as 1.37 M^−1 s^−1 ×10^12. In addition, on MγS (30 °C), the KSV stood at 8.034 M^−1 ×10^3, the Kq was determined as 1.4 M^−1 s^−1 ×10^12 and the ΔG is −5.6 kcalM^−1. On MγS (37 °C), this molecule gave a KSV of 4.905 M^−1 ×10^3, a Kq of 0.86 M^−1 s^−1 ×10^12 and a ΔG of −6.5 kcalM^−1. On WT-MγS, the “Tm (°C) WT-MGS” value stood at 73 °C. Moreover, the “Size (radius) of aggregates” value on WT-HγD crystallin came to 84.9 nm. On WT-HγD crystallin (setting [1]), the “Percent Mass Peak 1” value stood at 100% and the “Radius (nm) Peak 1” value is recorded as 84.9 nm.

`Cc1cc(C(C#N)c2ccc(Cl)cc2)c(Cl)cc1NC(=O)c1cc(I)cc(I)c1O` (stereo not drawn) [drug C, Closantel]: at W43R mutant of HγD, the “Effect on aggregation of W43R mutant” value is “worsened the aggregation” and the inhibition at 500 µM was -34%. At MγS (25 °C), the KSV is 4.828 M^−1 ×10^3, the Kq was determined as 0.847 M^−1 s^−1 ×10^12 and the ΔG is −7.0 kcalM^−1. Besides, on MγS (30 °C), the KSV came to 4.249 M^−1 ×10^3, the Kq was determined as 0.745 M^−1 s^−1 ×10^12 and the ΔG was −6.2 kcalM^−1. On MγS (37 °C), this molecule registered a KSV of 2.988 M^−1 ×10^3, a Kq of 0.524 M^−1 s^−1 ×10^12 and a ΔG of −4.1 kcalM^−1. Moreover, the “Tm (°C) WT-MGS” value at WT-MγS worked out at 72 °C. Further, the “Size (radius) of aggregates” value at WT-HγD crystallin was determined as 30.5 nm. At WT-HγD crystallin (setting [1]), the “Percent Mass Peak 1” value was 100% and the “Radius (nm) Peak 1” value is 30.5 nm.
